# According to patent publication US20130165459A1, “PHARMACEUTICAL COMPOSITION AND DOSAGE FORMS OF ELINOGREL AND METHODS OF USE THEREOF” (NORVARTIS PHARMA AG, priority 2010, published 2013):
# “And” between values parts separate entries of the source, which are not always exact repeats. Equal values may be shown once.
# Test: contact angle measurement (wettability)
# Type: physicochemical
# Conditions: for Contact Angle: water, n = 2; for surface hydrophobicity: critical angle around 50°
# Protocol: The contact angle instrument was EasyDrop DSA15E (Krüss, Hamburg, Germany). The syringe was a NE44, with a needle diameter of 0.5 mm (Krüss, Hamburg, Germany). The standards (Krüss, Hamburg, Germany) were CP24 20007107, contact angle Gauge#4=30.00°±0.3, Gauge#5=60.00°±0.3, Gauge#6=120.00°±0.3.
# The powder was pressed (approx 50 mg powder, 3 tons, 2 min) in tablets and analyzed by contact angle measuremnt. The angle between the solid and the liquid is measured after 0 and up to 60 seconds using water.
# All determinations used the above method, and the limit for the standards measurements are well within the given limits.
Contact Angle (0 sec),Contact Angle (30 sec),Contact Angle (60 sec),surface hydrophobicity,Compound
78.8 °,53.3 °,51.0 °,hydrophobic,CNc1cc2[nH]c(=O)n(-c3ccc(NC(=O)[N-]S(=O)(=O)c4ccc(Cl)s4)cc3)c(=O)c2cc1F.[K+] [A]
72.4 ° and 79.7 °,54.6 ° and 55.2 °,53.5 ° and 52.8 °,hydrophobic,CNc1cc2[nH]c(=O)n(-c3ccc(NC(=O)[N-]S(=O)(=O)c4ccc(Cl)s4)cc3)c(=O)c2cc1F.[K+] [B]
65.9 °,60.8 °,60.1 °,–,"CNc1cc2[nH]c(=O)n(-c3ccc(NC(=O)NS(=O)(=O)c4ccc(Cl)s4)cc3)c(=O)c2cc1F [Free acid, [4-(6-fluoro-7-methylamino-2,4-dioxo-1,4-dihydro-2H-quinazolin-3-yl)-phenyl]-5-chloro-thiophen-2-yl-sulfonylurea]"
